Data on 16 compounds can be found in patent publication US12600712B2 (Hoffmann-La Roche Inc., priority 2020, dated 2026).

The assay deals with T1, human Autotaxin (ATX) (Homo sapiens, UniProt Q13822).
T1 construct: used as template in overlapping PCR to generate a full length human ENPP2 ORF with or without a 3′-6×His tag; 6xHis (C); made in house; host or cells: FreeStyle 293-F cells (transient transfection, protein purified from culture supernatant)
Put plainly: Human ATX enzyme inhibition assay (LPC substrate, choline oxidase/HRP/Amplex Red coupled format). Type of assay: biochemical. The note with it: recombinant hATX 1 nM, 18:1 LPC 30 μM, fluorescence at 90 min minus 5 min. As to the method: Human ATX Enzyme Inhibition Assay
To identify inhibitors of the human Autotaxin (ATX) enzyme an in-vitro biochemical profiling assay has been developed using lysophosphatidylcholine (LPC) as substrate and recombinant enzyme. ATX activity is assayed via a coupled enzyme format where choline produced from LPC hydrolysis is converted to hydrogen peroxide by choline oxidase (CO). Hydrogen peroxide is in turn used as a co-substrate by horseradish peroxidase (HRP) to oxidise Amplex Red® and generate the red-fluorescent product, Resorufin.
50 mM Tris-HCl (pH 8.0); 120 mM NaCl; 20 mM CaCl2); 5 mM KCl; 1 mM MgCl2; 0.01% Triton X-100, sterile-filtered and stored at 4° C.
50 mM Tris-HCl (pH 8.0); 150 mM NaCl human Autotaxin (hATX): 0.97 mg/ml (9.718 μM) Molecular weight 99817. Working solution of 1.5 μM used in this assay.
100 mM 18:1 LPC dissolved in reagent dilution-buffer.
500 U/ml Choline Oxidase in reagent dilution buffer.
2540 U/ml Horseradish Peroxidase, in reagent dilution buffer (10.95 mg/ml).
20 mM Amplex Red (10-Acetyl-3,7-dihydroxy-phenoxazin) in DMSO.
Black, 384-well plate, black with clear bottom, non-treated surface.
Test compounds are received pre-diluted in DMSO as an 11-point concentration-response (0.5 mM highest concentration; 1 in 3.162 dilution). Test compounds are pre-diluted 1:1 (10 μL compound+10 μL assay buffer) in a 96-well conical bottomed plate prior to use.
ATX is diluted to 2.2 nM in assay buffer. Choline oxidase and horseradish peroxidase are diluted to 7.3 U/ml and 14.7 U/ml, respectively. 18:1 LPC and Amplex Red® are diluted to 110 μM and 183.3 μM, respectively (solution protected from light). 2.2 μL of compound pre-dilution or 50% DMSO is added to the reaction plate followed by 25 μL of ATX or assay buffer (negative control). Assay plate is mixed and incubated at room temperature for 10 mins. 15 μL of choline oxidase/horseradish peroxidase is then added. To initiate the reaction 15 μL of LPC 18:1/Amplex Red is added. Assay plate is mixed and incubated at room temperature in the dark. Fluorescence is measured at 5 mins (for background subtraction) and 90 mins.
• hATX: 1 nM • 18:1 LPC: 30 μM • Choline Oxidase: 2 U/ml • Horse Radish Peroxidase: 4 U/ml • Amplex Red®: 50 μM • DMSO: 2%
Fluorescence at 5-minutes is subtracted from the 90-minute end point data and normalized with respect to the positive control. IC50 values are calculated.
Results in the enzymatic ATX inhibition assay are provided for compounds of formula (I).

Usually IC50 stands for the concentration at which inhibition is half-maximal. Take `O=C(c1cnc(NC2Cc3cc(Cl)cc(F)c3C2)nc1)N1CCC12COC2` (single isomer, unassigned) [Example 16, (S or R)-(2-((6-chloro-4-fluoro-2,3-dihydro-1H-inden-2-yl)amino)pyrimidin-5-yl)(6-oxa-1-azaspiro[3.3]heptan-1-yl)methanone]: the IC50 worked out at 0.0451 µM.

For the compound `O=C(c1cnc(NC2Cc3cc(Cl)cc(Cl)c3C2)nc1)N1CCC12COC2` (stereo not shown) [Example 1], the IC50 came out at 0.013 µM. Next, `O=C(c1cnc(NC2Cc3ccc(Cl)c(Cl)c3C2)nc1)N1CCC12COC2` (stereo not shown) [Example 3, (2-((4,5-dichloro-2,3-dihydro-1H-inden-2-yl)amino)pyrimidin-5-yl)(6-oxa-1-azaspiro[3.3]heptan-1-yl)methanone]: 0.128 µM. Next, `O=C(c1cnc(NC2Cc3cc(Cl)cc(OC(F)F)c3C2)nc1)N1CCC12COC2` (stereo not shown) [Example 5]: 0.224 µM.

Turning to `N#Cc1cc(Cl)cc2c1CC(Nc1ncc(C(=O)N3CCC34COC4)cn1)C2` (stereo not shown) [Example 4, 2-((5-(6-oxa-1-azaspiro[3.3]heptane-1-carbonyl)pyrimidin-2-yl)amino)-6-chloro-2,3-dihydro-1H-indene-4-carbonitrile], the IC50 is 0.0208 µM. The value for `O=C(c1cnc(NC2Cc3cc(Cl)cc(C(F)(F)F)c3C2)nc1)N1CCC12COC2` (stereo not shown) [Example 10, (2-((6-chloro-4-(trifluoromethyl)-2,3-dihydro-1 H-inden-2-yl)amino)pyrimidin-5-yl)(6-oxa-1-azaspiro[3.3]heptan-1-yl)melhanone] was 0.184 µM. The value for `N#Cc1cc(Cl)cc2c1C[C@@H](Nc1ncc(C(=O)N3CCC34COC4)cn1)C2` [Example 11, (S)-2-((5-(6-oxa-1-azaspiro[3.3]heptane-1-carbonyl)pyrimidin-2-yl)amino)-6-chloro-2,3-dihydro-1H-indene-4-carbonitrile] was 0.0074 µM; that for `CC1(C)CCN1C(=O)c1cnc(N[C@H]2Cc3cc(Cl)cc(C#N)c3C2)nc1` [Example 12, (S)-6-chloro-2-((5-(2,2-dimethylazetidine-1-carbonyl)pyrimidin-2-yl)amino)-2.3-dihydro-1H-indene-4-carbonitrile] was 0.0065 µM. `CC#Cc1cc(Cl)cc2c1CC(Nc1ncc(C(=O)N3CCC34COC4)cn1)C2` (stereo not drawn) [Example 7, (2-((6-chloro-4-(prop-l-yn-1-yl)-2,3-dihydro-lH-inden-2-yl)amino)pyrimidin-5-yl)(6-oxa-1-azaspiro[3.3]heplan-l-yl)methanone]: the IC50 came out at 0.0237 µM.

`Cc1cc(Cl)cc2c1CC(Nc1ncc(C(=O)N3CCC34COC4)cn1)C2` (stereo not shown) [Example 2, (2-((6-chloro-4-methyl-2,3-dihydro-1H-inden-2-yl)amino)pyrimidin-5-yl)(6-oxa-1-azaspiro[3.3]heptan-1-yl)methanone]: the concentration for half-maximal inhibition (IC50) amounted to 0.062 µM. The value for `C[C@]1(O)C[C@]2(CCN2C(=O)c2cnc(N[C@H]3Cc4cc(Cl)cc(C#N)c4C3)nc2)C1` [Example 14, (cis)-6-chloro-2-(S)-((5-(6-hydroxy-6-methyl-1-azaspiro[3.3]heptane-1-carbonyl)pyrirnidin-2-yl)amino)-2,3-dihydro-1H-indene-4-carbonitrile] was 0.0055 µM; that for `O=C(c1cnc(NC2Cc3cccc(Cl)c3C2)nc1)N1CCC12COC2` (stereo not shown) [Example 15, (2-((4-chloro-2,3-dihydro-1H-inden-2-yl)amino)pyrimidin-5-yl)(6-oxa-1-azaspiro[3.3]heptan-1-yl)methanone] was 0.282 µM. As to `O=C(c1cnc(NC2Cc3ccc(Cl)c(F)c3C2)nc1)N1CCC12COC2` (stereo not drawn) [Example 9, (2-((5-chloro-4-fluoro-2,3-dihydro-lH-inden-2-yl)amino)pyrimidin-5-yl)(6-oxa-1-azaspiro[3.3]heplan-l-yl)methanone], the IC50 was determined as 0.123 µM. Next, `O=C(c1cnc(NC2Cc3cc(Cl)cc(F)c3C2)nc1)N1CCC12COC2` (racemic) [Example 8, (2-((6-chloro-4-fluoro-2,3-dihydro-1H-inden-2-yl)amino)pyrimidin-5-yl)(6-oxa-1-azaspiro[3.3]heplan-l-yl)melhanone]: 0.111 µM; `N#Cc1cc(Cl)cc2c1C[C@@H](Nc1ncc(C(=O)N3CCC34CC(F)(F)C4)cn1)C2` [Example 13, (S)-6-chloro-2-((5-(6,6-difluoro-1-azaspiro[3.3]heptane-1-carbonyl)pyrimidin-2-yl)amino)-2,3-dihydro-1H-indene-4-carbonitrile]: 0.003 µM; `Cc1c(Cl)ccc2c1CC(Nc1ncc(C(=O)N3CCC34COC4)cn1)C2` (stereo not shown) [Example 6]: 0.101 µM.
